Experimental data taken from patent US9937151B2, “Carbapenem antibacterials with gram-negative activity” (priority 2010, dated 2018).
Values after ≈ are worked out from the molar mass of the structure shown.

Tested on: G(−) bacterial strains
Test: Dilution antimicrobial susceptibility tests (MIC, NCCLS agar dilution / broth dilution)
Format: cell-based, Gram-negative organisms
Conditions: unit assumed
Procedure: The MIC (minimum inhibitory concentration) was determined by the NCCLS (National Committee for Clinical Laboratory Standards) methods 2000. Methods for dilution antimicrobial susceptibility testing for bacteria that growth aerobically (M7-A5, vol. 20, No. 2). The agar dilution method for determining antimicrobial susceptibility was carried out using Mueller-Hinton agar. A final inoculum of 10^4 CFU/spot was applied with an inoculation device. Broth dilution tests were performed with 5×10^5 CFU/well in 96 well plates. The susceptibilities of streptococci were determined by Mueller-Hinton agar supplemented with 5% sheep blood. All assays were run with the indicated control strains, available from the ATCC (American Type Culture Collection, Rockville, Md.).
Abbreviations used in Table 1 are defined as follows: Cf-R: Ceftazidime Resistance, Ci-R: Ciprofloxacin Resistance, Gen-R: Gentamycin Resistance, Imp-R: Imipenem Resistance, Mp-R: Meropenem Resistance, Ofx-R: Ofloxacin Resistance, B+: β-lactamase Production, AmpC: AmpC-lactamase Hyper production, CBPase: Carbapenemase Production.

[1] = strain #1 Acinetobacter calcoaceticus
[2] = strain #2 Acinetobacter baumannii, Cf-R, Ci-R
[3] = strain #3 Acinetobacter baumannii, Cf-R, Ci-R, Mp-I
[4] = strain #4 Acinetobacter baumannii, Cf-R, Imp-I, CBPase
[5] = strain #7 Enterobacter aerogenes
[6] = strain #8 Enterobacter cloacae, Cf-R, B+
[7] = strain #9 Enterobacter cloacae, Cf-R
[8] = strain #10 Escherichia coli, Ci-R
[9] = strain #11 Escherichia coli, Ci-R, AmpC
[10] = strain #15 Klebsiella pneumoniae
[11] = strain #16 Moraxella catarrhalis
[12] = strain #21 Providencia rettgeri
[13] = strain #22 Salmonella typhimurium
[14] = strain #25 Shigella dysenteriae
[15] = strain #28 Stenotrophomonas maltophilia
[16] = strain #29 Pseudomonas aeruginosa
[17] = strain #30 Pseudomonas aeruginosa
[18] = strain #31 Pseudomonas aeruginosa, Ofx-R
[19] = strain #32 Pseudomonas aeruginosa, Cf-R
[20] = strain #33 Pseudomonas aeruginosa, Ci-R
[21] = strain #34 Pseudomonas aeruginosa, Gen-R
[22] = strain #35 Pseudomonas aeruginosa, Ip-R
[23] = strain #36 Pseudomonas aeruginosa, Cf-R, Ci-R, Mp-R

Work on C[C@@H](O)C1C(=O)N2C(C(=O)O)=C(CN3CC[C@H](N(C)C)C3)[C@H](C)C12 (stereo partly shown) [Compound 46] yielded an MIC [1] of 1 µg/mL (≈ 2.96 µM), an MIC [2] of 2 µg/mL (≈ 5.93 µM) and an MIC [3] of 4 µg/mL (≈ 11.9 µM). It also gave an MIC [4] of 4 µg/mL (≈ 11.9 µM), an MIC (strain #5 Citrobacter diversus) of 0.25 µg/mL (≈ 0.741 µM) and an MIC (strain #6 Citrobacter freundii) of 0.5 µg/mL (≈ 1.48 µM). The MIC [5] was 1 µg/mL (≈ 2.96 µM), the MIC [6] was 0.25 µg/mL (≈ 0.741 µM) and the MIC [7] was 0.5 µg/mL (≈ 1.48 µM). It also gave an MIC [8] of 0.25 µg/mL (≈ 0.741 µM), an MIC [9] of 0.25 µg/mL (≈ 0.741 µM) and an MIC (strain #12 Escherichia coli) of 0.25 µg/mL (≈ 0.741 µM). For the same compound, the MIC (strain #13 Escherichia coli) was 0.25 µg/mL (≈ 0.741 µM), the MIC (strain #14 Klebsiella oxytoca) was 0.5 µg/mL (≈ 1.48 µM) and the MIC [10] was 0.5 µg/mL (≈ 1.48 µM). The MIC [11] was no more than 0.008 µg/mL, the MIC (strain #17 Morganella Morganii) was 2 µg/mL (≈ 5.93 µM) and the MIC (strain #18 Morganella Morganii) was 2 µg/mL (≈ 5.93 µM). For the same compound, the MIC (strain #19 Proteus vulgaris) was 1 µg/mL (≈ 2.96 µM), the MIC (strain #20 Proteus mirabilis) was 0.25 µg/mL (≈ 0.741 µM) and the MIC [12] was 1 µg/mL (≈ 2.96 µM). It also gave an MIC [13] of 0.25 µg/mL (≈ 0.741 µM), an MIC (strain #23 Serratia marcescens) of 1 µg/mL (≈ 2.96 µM) and an MIC (strain #24 Serratia marcescens) of 1 µg/mL (≈ 2.96 µM). The MIC [14] was 0.5 µg/mL (≈ 1.48 µM), the MIC (strain #26 Shigella sonnei) was 0.25 µg/mL (≈ 0.741 µM) and the MIC (strain #27 Shigella flexneri) was 0.25 µg/mL (≈ 0.741 µM). The MIC [15] was 0.5 µg/mL (≈ 1.48 µM), the MIC [16] was 4 µg/mL (≈ 11.9 µM) and the MIC [17] was 4 µg/mL (≈ 11.9 µM). For the same compound, the MIC [18] was 1 µg/mL (≈ 2.96 µM), the MIC [19] was 4 µg/mL (≈ 11.9 µM) and the MIC [20] was 4 µg/mL (≈ 11.9 µM). For the same compound, the MIC [21] was 4 µg/mL (≈ 11.9 µM), the MIC [22] was 16 µg/mL (≈ 47.4 µM) and the MIC [23] was 32 µg/mL (≈ 94.8 µM).

Work on C[C@@H](O)C1C(=O)N2C(C(=O)O)=C(CN3CC[C@H](C(=O)NCC(N)=O)C3)[C@H](C)C12 (stereo partly shown) [Compound 137] yielded an MIC [1] of 1 µg/mL (≈ 2.54 µM), an MIC [2] of 2 µg/mL (≈ 5.07 µM) and an MIC [3] of 8 µg/mL (≈ 20.3 µM). The MIC [4] was 2 µg/mL (≈ 5.07 µM), the MIC (strain #5 Citrobacter diversus) was 0.5 µg/mL (≈ 1.27 µM) and the MIC (strain #6 Citrobacter freundii) was 1 µg/mL (≈ 2.54 µM). It also gave an MIC [5] of 2 µg/mL (≈ 5.07 µM), an MIC [6] of 0.5 µg/mL (≈ 1.27 µM) and an MIC [7] of 1 µg/mL (≈ 2.54 µM). For the same compound, the MIC [8] was 0.5 µg/mL (≈ 1.27 µM), the MIC [9] was 0.5 µg/mL (≈ 1.27 µM) and the MIC (strain #12 Escherichia coli) was 0.5 µg/mL (≈ 1.27 µM). It also gave an MIC (strain #13 Escherichia coli) of 1 µg/mL (≈ 2.54 µM), an MIC (strain #14 Klebsiella oxytoca) of 1 µg/mL (≈ 2.54 µM) and an MIC [10] of 1 µg/mL (≈ 2.54 µM). It also gave an MIC [11] of no more than 0.008 µg/mL, an MIC (strain #17 Morganella Morganii) of 4 µg/mL (≈ 10.1 µM) and an MIC (strain #18 Morganella Morganii) of 4 µg/mL (≈ 10.1 µM). For the same compound, the MIC (strain #19 Proteus vulgaris) was 2 µg/mL (≈ 5.07 µM), the MIC (strain #20 Proteus mirabilis) was 0.5 µg/mL (≈ 1.27 µM) and the MIC [12] was 2 µg/mL (≈ 5.07 µM). It also gave an MIC [13] of 1 µg/mL (≈ 2.54 µM), an MIC (strain #23 Serratia marcescens) of 2 µg/mL (≈ 5.07 µM) and an MIC (strain #24 Serratia marcescens) of 2 µg/mL (≈ 5.07 µM). It also gave an MIC [14] of 1 µg/mL (≈ 2.54 µM), an MIC (strain #26 Shigella sonnei) of 1 µg/mL (≈ 2.54 µM) and an MIC (strain #27 Shigella flexneri) of 0.5 µg/mL (≈ 1.27 µM). It also gave an MIC [15] of 0.5 µg/mL (≈ 1.27 µM).

For C[C@@H](O)C1C(=O)N2C(C(=O)O)=C(CN3CC[C@H](C(=O)NS(N)(=O)=O)C3)[C@H](C)C12 (stereo partly shown) [Compound 19], the MIC [1] was 0.5 µg/mL (≈ 1.2 µM), the MIC [2] was 0.5 µg/mL (≈ 1.2 µM) and the MIC [3] was 2 µg/mL (≈ 4.8 µM). For the same compound, the MIC [4] was 1 µg/mL (≈ 2.4 µM), the MIC (strain #5 Citrobacter diversus) was 0.25 µg/mL (≈ 0.6 µM) and the MIC (strain #6 Citrobacter freundii) was 0.25 µg/mL (≈ 0.6 µM). For the same compound, the MIC [5] was 1 µg/mL (≈ 2.4 µM), the MIC [6] was 0.25 µg/mL (≈ 0.6 µM) and the MIC [7] was 0.5 µg/mL (≈ 1.2 µM). The MIC [8] was 0.25 µg/mL (≈ 0.6 µM), the MIC [9] was 0.25 µg/mL (≈ 0.6 µM) and the MIC (strain #12 Escherichia coli) was 0.25 µg/mL (≈ 0.6 µM). The MIC (strain #13 Escherichia coli) was 0.25 µg/mL (≈ 0.6 µM), the MIC (strain #14 Klebsiella oxytoca) was 0.5 µg/mL (≈ 1.2 µM) and the MIC [10] was 0.5 µg/mL (≈ 1.2 µM). It also gave an MIC [11] of no more than 0.008 µg/mL, an MIC (strain #17 Morganella Morganii) of 4 µg/mL (≈ 9.6 µM) and an MIC (strain #18 Morganella Morganii) of 2 µg/mL (≈ 4.8 µM). It also gave an MIC (strain #19 Proteus vulgaris) of 1 µg/mL (≈ 2.4 µM), an MIC (strain #20 Proteus mirabilis) of 0.25 µg/mL (≈ 0.6 µM) and an MIC [12] of 1 µg/mL (≈ 2.4 µM). For the same compound, the MIC [13] was 0.25 µg/mL (≈ 0.6 µM), the MIC (strain #23 Serratia marcescens) was 1 µg/mL (≈ 2.4 µM) and the MIC (strain #24 Serratia marcescens) was 1 µg/mL (≈ 2.4 µM). For the same compound, the MIC [14] was 0.25 µg/mL (≈ 0.6 µM), the MIC (strain #26 Shigella sonnei) was 0.25 µg/mL (≈ 0.6 µM) and the MIC (strain #27 Shigella flexneri) was 0.25 µg/mL (≈ 0.6 µM). For the same compound, the MIC [15] was 0.25 µg/mL (≈ 0.6 µM), the MIC [16] was 4 µg/mL (≈ 9.6 µM) and the MIC [17] was 4 µg/mL (≈ 9.6 µM). It also gave an MIC [18] of 1 µg/mL (≈ 2.4 µM), an MIC [19] of 4 µg/mL (≈ 9.6 µM) and an MIC [20] of 4 µg/mL (≈ 9.6 µM). It also gave an MIC [21] of 4 µg/mL (≈ 9.6 µM), an MIC [22] of 8 µg/mL (≈ 19.2 µM) and an MIC [23] of 32 µg/mL (≈ 76.8 µM).

With C[C@@H](O)C1C(=O)N2C(C(=O)[O-])=C(C[N+]3(C)CC[C@H](NC(=N)N)C3)[C@H](C)C12 (stereo partly shown) [Compound 67] the MIC [1] was 2 µg/mL (≈ 5.47 µM), the MIC [2] was 8 µg/mL (≈ 21.9 µM) and the MIC [3] was 8 µg/mL (≈ 21.9 µM). For the same compound, the MIC [4] was 4 µg/mL (≈ 10.9 µM), the MIC (strain #5 Citrobacter diversus) was 0.13 µg/mL (≈ 0.356 µM) and the MIC (strain #6 Citrobacter freundii) was 0.25 µg/mL (≈ 0.684 µM). The MIC [5] was 4 µg/mL (≈ 10.9 µM), the MIC [6] was 0.13 µg/mL (≈ 0.356 µM) and the MIC [7] was 0.25 µg/mL (≈ 0.684 µM). For the same compound, the MIC [8] was 0.13 µg/mL (≈ 0.356 µM), the MIC [9] was 0.13 µg/mL (≈ 0.356 µM) and the MIC (strain #12 Escherichia coli) was 0.13 µg/mL (≈ 0.356 µM). The MIC (strain #13 Escherichia coli) was 0.25 µg/mL (≈ 0.684 µM), the MIC (strain #14 Klebsiella oxytoca) was 0.25 µg/mL (≈ 0.684 µM) and the MIC [10] was 4 µg/mL (≈ 10.9 µM). For the same compound, the MIC [11] was 0.016 µg/mL (≈ 0.0438 µM), the MIC (strain #17 Morganella Morganii) was 16 µg/mL (≈ 43.8 µM) and the MIC (strain #18 Morganella Morganii) was 16 µg/mL (≈ 43.8 µM). It also gave an MIC (strain #19 Proteus vulgaris) of 16 µg/mL (≈ 43.8 µM), an MIC (strain #20 Proteus mirabilis) of 0.25 µg/mL (≈ 0.684 µM) and an MIC [12] of 1 µg/mL (≈ 2.74 µM). For the same compound, the MIC [13] was 0.25 µg/mL (≈ 0.684 µM), the MIC (strain #23 Serratia marcescens) was 0.5 µg/mL (≈ 1.37 µM) and the MIC (strain #24 Serratia marcescens) was 0.5 µg/mL (≈ 1.37 µM). The MIC [14] was 0.25 µg/mL (≈ 0.684 µM), the MIC (strain #26 Shigella sonnei) was 0.25 µg/mL (≈ 0.684 µM) and the MIC (strain #27 Shigella flexneri) was 0.13 µg/mL (≈ 0.356 µM). The MIC [15] was 2 µg/mL (≈ 5.47 µM), the MIC [16] was 1 µg/mL (≈ 2.74 µM) and the MIC [17] was 2 µg/mL (≈ 5.47 µM). It also gave an MIC [18] of 2 µg/mL (≈ 5.47 µM), an MIC [19] of 2 µg/mL (≈ 5.47 µM) and an MIC [20] of 2 µg/mL (≈ 5.47 µM). For the same compound, the MIC [21] was 2 µg/mL (≈ 5.47 µM), the MIC [22] was 4 µg/mL (≈ 10.9 µM) and the MIC [23] was 16 µg/mL (≈ 43.8 µM).
